{"source": "patent US4486437A", "about": "“Phthalidyl apovincaminate with cerebral eubolic activity” (Ausonia Farmaceutici s.r.l., priority 1982, dated 1984)", "key": {"[1]": {"assay": "Acute toxicity, single administration (LD50, Litchfield and Wilcoxon method)", "conditions": "in vivo, rat, read-out: LD50 (95% confidence limit)", "text": "The toxicity of single administrations of AP 698 has been studied in the rat, treating the animals by the oral and intraperitoneal routes with various dosage levels of AP 698.\nThe LD50 values, determined by the Litchfield and Wilcoxon method (J. Pharmacol. Exp. Therap., 1949, 96, 99) are given in Table 1."}, "[2]": {"tested_on": "cerebral electrical activity in the waking rabbit", "assay": "Effect on deterioration of electrogenesis by cerebral ischaemia (EEG)", "type": "in vivo"}, "[3]": {"tested_on": "hypobaric hypoxia in the mouse", "assay": "Changes in mortality caused by hypobaric hypoxia (survival time)", "type": "in vivo", "conditions": "for Survival time (mean values ± standard error): 190 mmHg, controls 72,5 ± 3,5", "protocol": "The experiments were conducted on mice confined in cages in which the pressure was reduced to a level (190 mmHg) which caused the death of the animals.\nAfter determining the survival time of the controls, the effects of various dosage levels of AP 698 were studied."}, "[4]": {"tested_on": "isolated rabbit ileum", "assay": "Effect on the smooth musculature, isolated rabbit ileum"}, "[5]": {"assay": "Enzyme hydrolysis in vitro, incubation with rat plasma", "type": "in vitro ADME", "conditions": "apovincaminic acid formed measured by gas chromatography", "text": "(§1) The pharmacokinetics of enzyme hydrolysis has been studied both in vitro and in vivo in the rat after oral administration of AP 698 labelled with tritium."}, "[6]": {"assay": "Pharmacokinetics in vivo after oral administration of tritium-labelled AP 698", "conditions": "rat; for presence in the plasma: after oral AP 698", "text": "as §1"}, "[7]": {"conditions": "post-ischaemic phase, contrary to controls"}, "[8]": {"conditions": "treated animals vs controls, i.v."}, "[9]": {"conditions": "16 mg/kg i.v., N.S. (MannWhitney)"}, "[10]": {"conditions": "25,6 mg/kg i.v., significance 0.01 (MannWhitney)"}, "[11]": {"conditions": "41,0 mg/kg i.v., significance 0.01 (MannWhitney)"}}, "note": "Like-named read-outs stand apart in the source and are kept apart here."}
{"smiles": "CCC12C=C(C(=O)OC3OC(=O)c4ccccc43)n3c4c(c5ccccc53)CCN(CCC1)C42", "note": "(stereo not drawn) [AP 698, 13a-ethyl-2,3,5,6,13a,13b-hexahydro-1H-indolo(3,2,1-de)pyrido(3,2,1-ij)(1,5)naphthyridin-12-phthalidyl carboxylate]", "values": [{"measurement": "LD50", "setting": "[1]; ip, i.p.", "value": 684, "unit": "mg/kg"}, {"measurement": "LD50", "setting": "[1]; po, p.o.", "value": "> 3000", "unit": "mg/kg"}, {"measurement": "minimal effective dose", "setting": "[2]; Oryctolagus cuniculus, intravenous at the end of the ischaemic manoeuvre, dose-dependent, read-out: lowest dose with evident therapeutic effect", "value": 0.5, "unit": "mg/kg"}, {"measurement": "amplitude of the theta rhythm", "setting": "[2]; between the 10th and 20th minutes, contrary to controls", "value": "not reduced"}, {"measurement": "(theta+beta)/(delta+alpha) ratios", "setting": "[2]; between the 14th and the 25th minutes, vs controls", "value": "decrease less than in the controls"}, {"measurement": "frequency of the theta rhythm", "setting": "[2]; [7]", "value": "not increased"}, {"measurement": "relative representation times (theta rhythm)", "setting": "[2]; [7]", "value": "not dispersed"}, {"measurement": "beta rhythm", "setting": "[2]; post-ischaemic phase, vs controls", "value": "less reduced than in the controls"}, {"measurement": "recovery of the EEG and of the cortical reactivity to stimulation", "setting": "[2]; [8]", "value": "quicker recovery"}, {"measurement": "return to a trace comparable to that recorded before the ischaemic manoeuvre", "setting": "[2]; [8]", "value": "return in a shorter time"}, {"measurement": "Survival time (mean values ± standard error)", "setting": "[3]; [9]", "value": "67,5 ± 2,5 sec."}, {"measurement": "Variation (survival time)", "setting": "[3]; [9]", "value": "-6,9%"}, {"measurement": "Survival time (mean values ± standard error)", "setting": "[3]; [10]", "value": "116,3 ± 13,5 sec."}, {"measurement": "Variation (survival time)", "setting": "[3]; [10]", "value": "+60,4%"}, {"measurement": "Survival time (mean values ± standard error)", "setting": "[3]; [11]", "value": "157,9 ± 33,2 sec."}, {"measurement": "Variation (survival time)", "setting": "[3]; [11]", "value": "+117,8%"}, {"measurement": "survival time, protective effect on induced hypobaric hypoxia (in words)", "setting": "[3]; mouse, various dosage levels", "value": "highly significant extension of the survival time with a substantial protective effect"}, {"measurement": "myorelaxant activity", "setting": "[4]; isolated rabbit ileum, compared with vincamine under the same conditions", "value": "considerable myorelaxant activity, decidedly higher than that displayed by vincamine"}, {"measurement": "effect on the tonus and amplitude of the contractions, compared with vincamine", "setting": "[4]; musculature in basal conditions and made hypertonic with sodium or serotonin", "value": "greater effect"}, {"measurement": "half-life", "setting": "[5]", "value": 7.3, "unit": "min"}, {"measurement": "presence in the plasma", "setting": "[6]", "value": "both unchanged AP 698 and apovincaminic acid in the plasma"}, {"measurement": "half-life", "setting": "[6]; oral, plasma, read-out: half-life of unchanged AP 698", "value": 72, "unit": "min"}]}
{"smiles": "CCC12C=C(C(=O)O)n3c4c(c5ccccc53)CCN(CCC1)C42", "note": "(stereo not drawn) [apovincaminic acid]", "values": [{"measurement": "levels of apovincaminic acid following the administration of AP 698", "setting": "[6]", "value": "persistent levels"}, {"measurement": "presence in the plasma", "setting": "[6]", "value": "both unchanged AP 698 and apovincaminic acid in the plasma"}]}
